Columns and labels:
Acetylcholinesterase [1] = target: T1, Acetylcholinesterase (Homo sapiens, UniProt P22303)
Description: In vitro reversal of vecuronium-induced neuromuscular block in guinea pig hemi-diaphragm.

[2] = Tested for water solubility of the compound; format: ADME; conditions: read-out: S
Acetylcholinesterase [3] = target: T1, Acetylcholinesterase; remark: listed apart in the source
Felis catus [4] = test: Change in response to vagal stimulation was detected in anaesthetised cats on administration of the compound; format: functional; further: test concentration or dose not given here
Felis catus [5] = test: Change in heart rate was detected in anaesthetised cats on administration of the compound; format: functional; further: test concentration or dose not given here
Felis catus [6] = test: Effective dose required for the reversal of vecuronium-induced neuromuscular block in-vivo in Chloaralose anaesthetised cats; format: functional
Felis catus [7] = test: Mean arterial pressure change was detected in anaesthetised cats on administration of the compound; format: functional, Artery; further: test concentration or dose not given here
Felis catus [8] = test: Maximum reversal of vecuronium-induced neuromuscular block in-vivo in anaesthetised cats; format: functional
Felis catus [9] = test: Maximum reversal of vecuronium-induced neuromuscular block in-vivo in anaesthetised cats at 1.28 umol/kg; format: functional
Acetylcholinesterase [10] = target: T1, Acetylcholinesterase; test: In vitro inhibition of human recombinant AChE.

T1 sequence (P22303 whole entry): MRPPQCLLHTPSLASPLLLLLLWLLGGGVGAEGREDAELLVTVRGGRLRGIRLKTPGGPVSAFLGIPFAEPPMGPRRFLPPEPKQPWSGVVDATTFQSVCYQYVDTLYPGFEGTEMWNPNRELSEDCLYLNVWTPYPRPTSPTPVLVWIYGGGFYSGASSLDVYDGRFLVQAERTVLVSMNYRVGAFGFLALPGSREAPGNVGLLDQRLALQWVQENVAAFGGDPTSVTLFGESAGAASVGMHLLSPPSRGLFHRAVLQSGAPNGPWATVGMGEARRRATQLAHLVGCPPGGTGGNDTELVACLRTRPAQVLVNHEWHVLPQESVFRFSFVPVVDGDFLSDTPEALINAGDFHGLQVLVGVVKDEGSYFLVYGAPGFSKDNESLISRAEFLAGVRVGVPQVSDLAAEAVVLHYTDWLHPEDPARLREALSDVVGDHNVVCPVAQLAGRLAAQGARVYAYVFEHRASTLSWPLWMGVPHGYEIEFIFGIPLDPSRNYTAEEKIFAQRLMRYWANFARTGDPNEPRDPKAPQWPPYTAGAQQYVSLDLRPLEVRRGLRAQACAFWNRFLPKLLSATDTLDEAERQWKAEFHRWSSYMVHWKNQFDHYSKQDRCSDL

Structure (SMILES) | EC50 (Acetylcholinesterase [1]) [nM] | solubility [2] [µg/mL] | IC50 (Acetylcholinesterase [3]) [nM] | Vagus (Felis catus [4]) [delta %] | HR (Felis catus [5]) [delta %] | ED50 (Felis catus [6]) [µmol/kg] | MAP (Felis catus [7]) [delta %] | other results
C[N+]1(Cc2ccccc2)CCC(CCC(=O)c2ccc3c(c2)OCO3)CC1 (configuration not stated) | 1700 | 500 | 240 |  |  |  |  | 
COc1cc2c(cc1OC)C(=O)C(C(O)C1CC[N+](Cc3ccccc3)(Cc3ccccc3)CC1)C2 (configuration not stated) | 43500 |  |  |  |  |  |  | 
C[N+]1(Cc2ccccc2)CCC(CCC(=O)c2ccc3c(c2)CCCCO3)CC1 (configuration not stated) |  | 5000 | 139 |  |  |  |  | 
COc1cc2c(cc1OC)C(=O)[C@@H]([C@@H](O)C1CC[N+](C)(Cc3ccccc3)CC1)C2 (some centres not stated) | 2700 |  |  |  |  |  |  | 
COc1cc2c(cc1OC)C(=O)C(CC1CC[N+](C)(Cc3ccccc3)CC1)C2 (configuration not stated) | 100 |  | 25 | 37 | 11 | ~0.06 | -22 | Max rev (Felis catus [8]): 131%
C[N+]1(Cc2ccccc2)CCC(CCC(=O)c2ccc3c(c2)NCCCC3)CC1 (configuration not stated) | 331 |  | < 500 | 10 | 4 | 0.15 | -6 | Max rev (Felis catus [8]): 140%
COc1cc2cc(C(=O)CCC3CC[N+](C)(Cc4ccccc4)CC3)n(C)c2cc1OC (configuration not stated) | 1600 | 1200 | 120 |  |  |  |  | 
CC1=CC2Cc3[nH]c(=O)ccc3C3(C1)C2CCCN3C (configuration not stated) | > 10000 |  | > 100000 |  |  |  |  | 
COc1ccc2c3c1OC1C[C@@H](O)C=C[C@@]31CC[N+](C)(C)C2 (some centres not stated) | 630 |  | ~500 | 80 | -5 | 0.1 | 16 | Max rev (Felis catus [8]): 130%
C[N+]1(Cc2ccccc2)CCC(CCC(=O)c2ccc3c(c2)OCCO3)CC1 (configuration not stated) | > 3000 | < 500 | 100 |  |  |  |  | 
C[N@+]1(Cc2ccccc2)CC[C@H](CCC(=O)c2ccc3c(c2)CCO3)CC1 |  | > 10000 | 66 |  |  |  |  | 
COc1cc2c(cc1OC)C(=O)/C(=C/c1cc[n+](Cc3ccccc3)cc1)C2 | 12 |  |  |  |  |  |  | 
Cc1cc(C(=O)CCC2CC[N+](C)(Cc3ccccc3)CC2)nn1-c1ccccc1 (configuration not stated) | 430 | 2000 | 22 |  |  |  |  | 
COc1cc2cc(C(=O)CCC3CC[N+](C)(Cc4ccccc4)CC3)sc2cc1OC (configuration not stated) | 19 | 2000 | 8 |  |  |  |  | 
C[N+]1(Cc2ccccc2)CCC(CCC(=O)c2ccc3c(c2)CCO3)CC1 (configuration not stated) | 90 | 1500 | 17 |  |  |  |  | 
COc1cc2c(cc1OC)C(=O)[C@@H]([C@H](O)C1CC[N+](C)(Cc3ccccc3)CC1)C2 (some centres not stated) | 890 |  |  |  |  |  |  | 
COc1cc2c(cc1OC)C(=O)C(Cc1cc[n+](Cc3ccccc3)cc1)C2 (configuration not stated) | 100 |  |  |  |  |  |  | 
COc1ccc2cc(C(=O)CCC3CC[N+](C)(Cc4ccccc4)CC3)ccc2c1 (configuration not stated) | 530 | < 1000 | 50 |  |  |  |  | 
COc1cc2c(cc1OC)C(=O)C(C(O)C1CC[N+](C)(Cc3ccccc3)CC1)C2 (configuration not stated) | 1440 |  |  | 18 | -12 | 0.21 | -22 | Max rev (Felis catus [9]): 109%
COc1cc2c(cc1OC)C(=O)C(C(O)c1cc[n+](Cc3ccccc3)cc1)C2 (configuration not stated) | 1880 |  |  |  |  |  |  | 
COc1cc2c(cc1OC)C(=O)C(CC1CCN(Cc3ccccc3)CC1)C2 (configuration not stated) [DONEPEZIL] |  |  |  | 14 | -12 | 0.53 | -12 | Max rev (Felis catus [8]): 106%
CC1=C[C@H]2Cc3[nH]c(=O)ccc3[C@]3(C1)NCCC[C@H]23 [HUPERZINE B] | 19 |  |  | 102 | -8 | 0.08 | -17 | Max rev (Felis catus [8]): 156%; IC50 (Acetylcholinesterase [10]): 30 nM
O=C(CCC1CCN(Cc2ccccc2)CC1)c1ccc2c(c1)NCCCC2 [ZANAPEZIL] |  |  |  | 8 | -5 | 3.7 | -11 | Max rev (Felis catus [8]): 68%

Source: ChEMBL document CHEMBL1135324, “Quaternary salts of E2020 analogues as acetylcholinesterase inhibitors for the reversal of neuromuscular block” (Bioorg Med Chem Lett, 2002)
